Laboratory results published in paper PMC3684613 (PLoS ONE, 2013).
Where two headings read alike, the source gives them in different places.

How the values were obtained:
P. falciparum 3D7 [1] = test system: P. falciparum 3D7; set-up: method as in ChEMBL-NTD; details: ref ChEMBL-NTD, cited from earlier work
P. falciparum 3D7 [2] = experiment: DAPI stain fluorescent high content imaging assay, P. falciparum 3D7 (confirmatory screen, Avery); details: Plasmodium falciparum; for EC50: 3D7, read-out: EC50_nM; for inhibition of growth at 5 µM: 3D7, read-out: percent_inh @ 5 uM
[3] = values follow the order of the source (GNF; GSK; StJude)
[4] = original screening data, source (GSK, GNF, StJude), several values separated by ';' in order of sources

SMILES | EC50 (P. falciparum 3D7 [2]) | inhibition of growth at 5 µM (P. falciparum 3D7 [2]) | other results
CCOc1ccc(Nc2c3ccccc3nc3ccccc23)cc1 [MMV000304] | 1.06 µM | 97% | EC50 (P. falciparum 3D7 [1]; source StJude (SJ ids)): 5.72 µM
O=C(Nc1cccc(C(F)(F)F)c1)c1cc(Cl)ccc1O [MMV665807] | – | 93% | EC50 (P. falciparum 3D7 [1]; source StJude): 0.973 µM
OCCNc1nc(Nc2ccc(Cl)c(Cl)c2)nc2ccccc12 [MMV001041] | 0.59 µM | – | EC50 (P. falciparum 3D7 [1]; source GNF): 0.14 µM; EC50 (P. falciparum 3D7 [1]; source StJude): 15 µM; inhibition of growth at 2 µM (P. falciparum 3D7 [2]; 3D7, read-out: percent_inh @ 2 uM): 94%
CCCC(c1nnnn1C1CCCCC1)N1CCN(C(=O)c2ccco2)CC1 (stereo not shown) [MMV666093] | – | 82% | EC50 (P. falciparum 3D7 [1]; source GNF): 1.33 µM
O=C(Nc1ccsc1C(=O)NC1CCCCC1)c1ccc(F)cc1 [MMV665939] | – | 86% | EC50 (P. falciparum 3D7 [1]; source GSK): 1.21 µM
CCOc1ccc(-c2nonc2NC(=O)c2cccc(C)c2)cc1OCC [MMV665805] | 0.117 µM | 86% | EC50 (P. falciparum 3D7 [1]; source StJude): 0.0619 µM
COc1ccc(NC(=O)C2c3ccccc3C(=O)N(CC(C)C)C2c2cccs2)cc1Cl (stereo not shown) [MMV000642] | 0.0202 µM | 100% | EC50 (P. falciparum 3D7 [1]; source GNF (GNF-Pf id)): 0.0914 µM; EC50 (P. falciparum 3D7 [1]; source StJude (SJ id)): 0.119 µM
O=C(Nc1ccc(Cl)c(Cl)c1)Nc1ccc(Cl)c(Cl)c1 [MMV665852] | 1.16 µM | 96% | EC50 (P. falciparum 3D7 [1]; [3]): 1.03 µM
CCOc1ccccc1NC(=O)CN1CCN(C(=O)c2ccco2)CC1 [MMV007791] | – | 83% | EC50 (P. falciparum 3D7 [1]; [4]): 5.46 µM
CC(=O)c1ccc(NC(=O)CSc2nc(-c3ccccc3Cl)ns2)cc1 [MMV666124] | – | – | EC50 (P. falciparum 3D7 [1]; source GSK (TCMDC ids)): 1.13 µM; inhibition at 2.5 µM (P. falciparum 3D7 [2]; 3D7, read-out: % inh. At 2.5 uM): 88%
COc1ccc2c(=O)cc(C(Cl)(Cl)Cl)oc2c1 [MMV665820] | 0.52 µM | 94% | EC50 (P. falciparum 3D7 [1]; source StJude (SJ id)): 15 µM
CN1C=C(c2ccc3ccccc3n2)C(c2c[nH]c3ccccc23)c2ccccc21 (stereo not shown) [MMV008160] | 0.552 µM | 95% | EC50 (P. falciparum 3D7 [1]; [3]): 1.14 µM
Cc1ccc(OCCCCCCNCCO)c(C)c1 [MMV666020] | – | 49% | EC50 (P. falciparum 3D7 [1]; source GNF (GNF-Pf ids)): 1.97 µM
CCOc1ccc2c(c1)CN(Cc1ccc(Cl)cc1)CO2 [MMV000443] | 0.439 µM | 97% | EC50 (P. falciparum 3D7 [1]; source StJude (SJ ids)): 1.49 µM
O=C1CC(O)(C(F)(F)C(F)(F)F)Oc2ccccc21 (stereo not shown) [MMV000972] | – | 95% | EC50 (P. falciparum 3D7 [1]; [4]): 2.57 µM
CSc1ccccc1C(=O)Nc1nc(-c2ccccn2)cs1 [MMV001246] | 0.206 µM | 98% | EC50 (P. falciparum 3D7 [1]; source StJude (SJ id)): 6.82 µM
COc1cc(OC)cc(N2C(=O)N(Cc3ccc(C(C)(C)C)cc3)c3ccccc3S2(=O)=O)c1 [MMV008173] | 1.43 µM | 97% | EC50 (P. falciparum 3D7 [1]; source GNF (GNF-Pf ids)): 3.75 µM

Further lines, with some results ahead:

EC50 (P. falciparum 3D7 [2]) | SMILES | inhibition of growth at 5 µM (P. falciparum 3D7 [2]) | other results
0.135 µM | CSC1=NC(=Nc2c(C)cccc2C)C2(CCC(C(C)(C)C)CC2)N1c1ccc(Cl)cc1 (stereo not shown) [MMV666596] | 96% | EC50 (P. falciparum 3D7 [1]; source GNF (GNF-Pf id)): 1.48 µM
0.0368 µM | c1ccc(Cn2c(N=Nc3c(Nc4ccccc4)ccc4ccccc34)nc3ccccc32)cc1 [MMV666023] | 96% | EC50 (P. falciparum 3D7 [1]; source GNF (GNF-Pf id)): 2.73 µM
0.255 µM | CN(C)c1ccc(C(O)(c2ccc(N(C)C)cc2)c2ccc(N(C)C)cc2)cc1 [MMV665941] | 96% | EC50 (P. falciparum 3D7 [1]; source StJude (SJ id)): 0.62 µM
0.532 µM | COc1ccc(Nc2nc(NN=Cc3ccc(O)cc3)nc(Nc3ccc([N+](=O)[O-])cc3)n2)cc1 [MMV666689] | 98% | EC50 (P. falciparum 3D7 [1]; source GSK): 1.12 µM
0.381 µM | CC1=C(CC(=O)c2cccc([N+](=O)[O-])c2)C(=O)c2ccccc2C1=O [MMV666125] | 95% | EC50 (P. falciparum 3D7 [1]; source GNF (GNF-Pf ids)): 2.84 µM
1.19 µM | COCCN(C(=O)Cc1cccs1)C(C(=O)NCc1ccc(OC)cc1)c1ccc(C(C)C)cc1 (stereo not shown) [MMV666105] | 92% | EC50 (P. falciparum 3D7 [1]; source GSK): 0.845 µM
0.0238 µM | COc1cccc(C=Cc2nc(=O)c3ccccc3o2)c1OC [MMV666693] | 96% | EC50 (P. falciparum 3D7 [1]; source GSK (TCMDC id)): 0.0644 µM
0.994 µM | CN1c2ccccc2N(C)C1c1ccc2c(c1)OCO2 [MMV666009] | 60% | EC50 (P. falciparum 3D7 [1]; source GNF): 1.12 µM
